Experimental data reported in the NIST ThermoML archive (doi:10.1021/je900874z).

What was measured:
[1] = 101.33 kPa, Liquid; for speed of sound: Pulse-echo method
[2] = xn = mol fraction of the nth substance listed; details: 101 kPa, Liquid

Nc1ccccc1 [aniline]
[1]
Details	mass density [kg/m3]	speed of sound [m/s]
293.15 K	1021.7	1657
298.15 K	1017.41	1638.6
303.15 K	1013.04	1619.2

CNc1ccccc1 [N-methylaniline] + CC(C)=O
[2]
Details	mass density [kg/m3]
293.15 K, x2 = 0.0565	979.562
293.15 K, x2 = 0.1032	973.934
293.15 K, x2 = 0.1494	968.145
293.15 K, x2 = 0.1916	962.605
293.15 K, x2 = 0.251	954.413
293.15 K, x2 = 0.2952	948.053
293.15 K, x2 = 0.3555	938.912
293.15 K, x2 = 0.4039	931.04
293.15 K, x2 = 0.4478	923.576
293.15 K, x2 = 0.4981	914.659
293.15 K, x2 = 0.5489	905.091
293.15 K, x2 = 0.5965	895.722
293.15 K, x2 = 0.6485	884.852
293.15 K, x2 = 0.7018	873.046
293.15 K, x2 = 0.7472	862.27
293.15 K, x2 = 0.802	848.69
293.15 K, x2 = 0.8563	834.277
293.15 K, x2 = 0.9053	820.343
293.15 K, x2 = 0.9548	805.391
298.15 K, x2 = 0.044	977.005
298.15 K, x2 = 0.0984	970.455
298.15 K, x2 = 0.1447	964.607
298.15 K, x2 = 0.1996	957.353
298.15 K, x2 = 0.2503	950.29
298.15 K, x2 = 0.2919	944.327
298.15 K, x2 = 0.3511	935.283
298.15 K, x2 = 0.3924	928.532
298.15 K, x2 = 0.452	918.415
298.15 K, x2 = 0.4948	910.794
298.15 K, x2 = 0.5563	899.086
298.15 K, x2 = 0.6004	890.231
298.15 K, x2 = 0.6473	880.387
298.15 K, x2 = 0.6962	869.434
298.15 K, x2 = 0.7506	856.501
298.15 K, x2 = 0.8009	843.758
298.15 K, x2 = 0.8518	830.205
298.15 K, x2 = 0.8986	816.915
298.15 K, x2 = 0.9488	801.799
303.15 K, x2 = 0.0461	972.638
303.15 K, x2 = 0.0934	966.889
303.15 K, x2 = 0.1524	959.343
303.15 K, x2 = 0.1937	953.815
303.15 K, x2 = 0.2442	946.596
303.15 K, x2 = 0.3357	933.026
303.15 K, x2 = 0.3991	922.737
303.15 K, x2 = 0.4904	906.677
303.15 K, x2 = 0.5507	895.228
303.15 K, x2 = 0.5949	886.274
303.15 K, x2 = 0.6467	875.21
303.15 K, x2 = 0.6928	864.807
303.15 K, x2 = 0.7424	852.961
303.15 K, x2 = 0.7993	838.524
303.15 K, x2 = 0.8469	825.646
303.15 K, x2 = 0.8977	811.117
303.15 K, x2 = 0.9484	795.598

CNc1ccccc1 [N-methylaniline]
[1]
Details	mass density [kg/m3]	speed of sound [m/s]
293.15 K	986.077	1582.3
298.15 K	982.066	1564.4
303.15 K	978.011	1545.5

c1ccncc1 [pyridine] + CC(C)=O
[2]
Details	mass density [kg/m3]
293.15 K, x2 = 0.0577	973.393
293.15 K, x2 = 0.1007	966.028
293.15 K, x2 = 0.1536	956.946
293.15 K, x2 = 0.2043	948.163
293.15 K, x2 = 0.2219	945.011
293.15 K, x2 = 0.2968	931.713
293.15 K, x2 = 0.3537	921.354
293.15 K, x2 = 0.4051	911.899
293.15 K, x2 = 0.5191	890.383
293.15 K, x2 = 0.5519	884.082
293.15 K, x2 = 0.5969	875.296
293.15 K, x2 = 0.6425	866.297
293.15 K, x2 = 0.703	854.168
293.15 K, x2 = 0.7504	844.514
293.15 K, x2 = 0.8066	832.904
293.15 K, x2 = 0.8569	822.218
293.15 K, x2 = 0.9019	812.518
293.15 K, x2 = 0.9456	803.006
298.15 K, x2 = 0.0514	969.365
298.15 K, x2 = 0.0969	961.623
298.15 K, x2 = 0.1486	952.705
298.15 K, x2 = 0.2023	943.375
298.15 K, x2 = 0.2444	935.93
298.15 K, x2 = 0.296	926.692
298.15 K, x2 = 0.3544	916.021
298.15 K, x2 = 0.3965	908.33
298.15 K, x2 = 0.4516	898.006
298.15 K, x2 = 0.5036	888.119
298.15 K, x2 = 0.594	870.616
298.15 K, x2 = 0.6454	860.492
298.15 K, x2 = 0.6971	850.007
298.15 K, x2 = 0.7518	838.783
298.15 K, x2 = 0.8049	827.707
298.15 K, x2 = 0.8456	819.096
298.15 K, x2 = 0.8955	808.385
298.15 K, x2 = 0.9456	797.415
303.15 K, x2 = 0.0493	964.637
303.15 K, x2 = 0.0954	956.714
303.15 K, x2 = 0.1463	947.874
303.15 K, x2 = 0.1983	938.736
303.15 K, x2 = 0.2424	930.863
303.15 K, x2 = 0.2929	921.779
303.15 K, x2 = 0.3522	910.875
303.15 K, x2 = 0.4048	901.126
303.15 K, x2 = 0.4497	892.629
303.15 K, x2 = 0.497	883.593
303.15 K, x2 = 0.5412	875.069
303.15 K, x2 = 0.5965	864.243
303.15 K, x2 = 0.6594	851.677
303.15 K, x2 = 0.6912	845.142
303.15 K, x2 = 0.7491	833.115
303.15 K, x2 = 0.8475	812.305
303.15 K, x2 = 0.8946	802.071
303.15 K, x2 = 0.9443	791.125

Nc1ccccc1 [aniline] + CC(C)=O
[2]
Details	mass density [kg/m3]
293.15 K, x2 = 0.0522	1013.71
293.15 K, x2 = 0.1078	1004.97
293.15 K, x2 = 0.1567	996.941
293.15 K, x2 = 0.2074	988.429
293.15 K, x2 = 0.249	981.269
293.15 K, x2 = 0.3016	971.707
293.15 K, x2 = 0.3454	963.326
293.15 K, x2 = 0.3832	955.799
293.15 K, x2 = 0.4313	946.013
293.15 K, x2 = 0.4908	933.416
293.15 K, x2 = 0.5497	920.272
293.15 K, x2 = 0.583	912.529
293.15 K, x2 = 0.6446	897.535
293.15 K, x2 = 0.6911	885.684
293.15 K, x2 = 0.7465	870.629
293.15 K, x2 = 0.8046	854.022
293.15 K, x2 = 0.8497	840.545
293.15 K, x2 = 0.9045	823.238
293.15 K, x2 = 0.9475	809.118
298.15 K, x2 = 0.0569	1008.67
298.15 K, x2 = 0.1088	1000.44
298.15 K, x2 = 0.1539	993.118
298.15 K, x2 = 0.1978	985.694
298.15 K, x2 = 0.2484	976.895
298.15 K, x2 = 0.3039	966.77
298.15 K, x2 = 0.3505	957.976
298.15 K, x2 = 0.4114	945.773
298.15 K, x2 = 0.4585	935.933
298.15 K, x2 = 0.5035	926.122
298.15 K, x2 = 0.5501	915.531
298.15 K, x2 = 0.5922	905.703
298.15 K, x2 = 0.6499	891.425
298.15 K, x2 = 0.6993	878.643
298.15 K, x2 = 0.7522	864.125
298.15 K, x2 = 0.8082	848.052
298.15 K, x2 = 0.8533	834.272
298.15 K, x2 = 0.8951	821.048
298.15 K, x2 = 0.9545	801.258
303.15 K, x2 = 0.0515	1005.02
303.15 K, x2 = 0.1002	997.272
303.15 K, x2 = 0.1475	989.506
303.15 K, x2 = 0.1926	981.799
303.15 K, x2 = 0.2399	973.527
303.15 K, x2 = 0.3024	962.003
303.15 K, x2 = 0.3475	953.088
303.15 K, x2 = 0.3947	943.989
303.15 K, x2 = 0.4503	932.55
303.15 K, x2 = 0.4979	922.075
303.15 K, x2 = 0.5502	910.191
303.15 K, x2 = 0.6037	897.422
303.15 K, x2 = 0.6464	886.697
303.15 K, x2 = 0.6975	873.362
303.15 K, x2 = 0.7548	857.721
303.15 K, x2 = 0.8078	842.147
303.15 K, x2 = 0.8567	827.148
303.15 K, x2 = 0.9014	812.779
303.15 K, x2 = 0.9494	796.575

c1ccncc1 [pyridine]
[1]
Details	mass density [kg/m3]	speed of sound [m/s]
293.15 K	983.053	1436.7
298.15 K	978.05	1416.7
303.15 K	972.98	1396.6

CC(C)=O [acetone]
[1]
Details	mass density [kg/m3]	speed of sound [m/s]
293.15 K	790.694	1182.8
298.15 K	785.32	1160.7
303.15 K	778.812	1138.7
